We go through three compounds from paper PMC7005452 (Heliyon, 2020).

Where two headings read alike, the source gives them in different places.

In series [1] the test system is HSP70, CCNB1 (cyclin B1), and CCND1 (cyclin D1). Put plainly: Real-time PCR, HSP70, CCNB1 and CCND1 mRNA expression in SH-SY5Y cells. Type of series: cell-based, human. The conditions noted are these: 48 h, MB 3.7 mM, EB 1.7 mM, VB 1.7 mM. As to the method:
(§1) HEK293 and SH-SY5Y cells were grown to 60–70% confluence in 6 well plates and the media were exchanged with the ones including the chemicals, MB, EB, or VB in the given concentrations. After 48 h incubation, the cells were washed with cold PBS once and scraped. The cells were washed again with cold PBS twice before extracting total RNA molecules using Qiagen RNeasy kit. cDNAs were constructed from 600 ng of the collected RNAs using Reverse Transcription System (Promega, Japan). cDNA was analyzed through real-time quantifying PCR using SYBR Green Realtime PCR Master Mix (Toyobo, Japan) according to the manufacturer's instructions (CFX96 Touch Real-time PCR System, Bio-Rad).
(§2) Further, we prompted to assess whether the gene expression of cell cycle and stress regulators such as cyclins and HSP70 is affected by MB, EB, and VB. These chemicals were applied to the HEK293 or SH-SY5Y cells at the concentrations of 4.4 mM [0.06% MB, 0.05% (3.7 mM) for SH-SY5Y cells], 1.7 mM (0.025%, EB), and 1.7 mM (0.025%, VB), respectively, for 48 h before extracting the total RNAs from the cells. The concentrations were chosen based on the LC50 values, approximately a third of the values, that would not cause cell death but could influence the gene expression in the tested cells. mRNAs of HSP70, CCNB1 (cyclin B1), and CCND1 (cyclin D1) were quantified by real-time PCR with ACTIN as a reference gene. Cyclin B1 is a checkpoint regulator for S/G2 transition, whereas cyclin D1 is for G1 progression ([Baldin et al., 1993]; [Hwang et al., 1995]). […] The mRNA expression of HSP70, a stress-inducible gene ([Huang et al., 2001]), decreased in MB-, EB-, and VB-treated HEK293 cells, and VB-treated samples showing the least expression (Figure 4A). […] For SH-SY5Y cells, we also measured the mRNA expression of AChE, acetylcholinesterase gene ([Dvir et al., 2010]), because of the similar structure of these chemicals to methylparaben ([Nathan and Sears, 1961]) and of the fact that MB has been reported to have a repellent effect against some insect pests such as Bemisia tabaci (Gennadius) ([Mostafiz et al., 2018]).
(In general: In qPCR the cycle at which signal appears reflects the starting amount.)

Series [2] in a line: WST-1 cytotoxicity / cell viability assay. Type of series: cell-based, human. The conditions noted are these: human, HEK293 cells, log-probit on percentage mortality, read-out: LC50. The method, then:
(§3) Human embryonic kidney 293 (HEK293) and CACO2 cells were purchased from ATCC. Cells were cultured in DMEM (Corning, USA) supplemented with 10% FBS (Gibco, USA) and 1% penicillin/streptomycin (Gibco, USA). SH-SY5Y cells were gifted by Dr. Dong-Hyung Cho's laboratory in the Dept. of Life Science at Kyungpook National University and were grown in DMEM with high glucose (Gibco, USA). Cells were grown to 80–90% confluence in a 10 cm plate before splitting into a 96 well plate. […] After 48 h incubation, 10% (v/v) of water soluble tetrazolium salt (WST, DoGen Inc., South Korea) was added to each well, following the manufacturer's instruction. Orange color development for enzyme-substrate reaction was monitored, using spectrophotometry at 450 nm (Tecan Sunrise, Switzerland).
(§4) One-way ANOVA, followed by a post-hoc Tukey's HSD test, was used to determine differences in toxicity, and repellency percentages (P < 0.05) (SAS for Window release 6, SAS Institute). All percentage mortality data were corrected using Abbott's formula ([Abbott, 1987]). […] Adult repellency percentage was calculated using the formula PR (%) = [(C-T)/(C + T)] × 100 ([Liu et al., 2013]). All analyses were performed in SAS version 9.4. All the graphs were drawn with SigmaPlot 12.5 (Systat Software, Inc., San Jose, CA, USA).
(§5) As the safety of agricultural products and foods became a major concern and issue in the modern society, validating the effects of pesticides on human physiology and setting the safety limits of their use is important ([Fan and Jackson, 1989]; [Kim et al., 2017]). […] WST-1 is a substrate of mitochondrial dehydrogenases and is converted to a colored dye called formazan in viable cells. Because the intensity of dye is proportional to the amount of enzyme, WST-1 reagent cell proliferation assay is widely used to measure the cell viability ([Ngamwongsatit et al., 2008]).
In general terms: Tetrazolium dyes change colour on reduction, which living cells bring about.

The test system of a further series is HEK293 cells. Nature of the series: WST-1 cytotoxicity / cell viability assay. Type of series: cell-based, human. As to the method: as §3, §4, §5
The subject of series [3] is AChE, acetylcholinesterase gene. Nature of the series: Real-time PCR, AChE mRNA expression in SH-SY5Y cells. The class given is cell-based, human. The conditions noted are these: 48 h, MB 3.7 mM, EB 1.7 mM, VB 1.7 mM. The method, then: as §1, §2
The subject of another series is CCNB1 (cyclin B1). Nature of the series: Real-time PCR, cyclin B1 mRNA expression in HEK293 cells. Type of series: cell-based, human. The conditions noted are these: HEK293, 48 h, MB 4.4 mM, EB 1.7 mM, VB 1.7 mM, ACTIN reference. The method, then:
as §1, §2

Series [4] concerns HSP70. Nature of the series: Real-time PCR, HSP70 mRNA expression in HEK293 cells. Type of series: cell-based, human. The conditions noted are these: HEK293, 48 h, MB 4.4 mM, EB 1.7 mM, VB 1.7 mM, ACTIN reference. As to the method:
as §1, §2

Series [5] is described as follows: WST-1 cytotoxicity / cell viability assay. The class given is cell-based, human. The following applies: human, SH-SY5Y cells, log-probit on percentage mortality, read-out: LC50. As to the method: as §3, §4
(§6) It has also been used as a preservative for cosmetic products. In addition, it was reported that methylparaben is a chemical compound present in local anesthetic that can alter the function of the human nervous system ([Nathan and Sears, 1961]).

The subject of another series is SH-SY5Y cells. Put plainly: WST-1 cytotoxicity / cell viability assay. The class given is cell-based, human. The method, then:
as §3, §4, §6

For series [6], the system named is HSP70. Nature of the series: Western blot, HSP70 protein level in HEK293 cells. The class given is cell-based, human. The conditions noted are these: HEK293, VB 1.7 mM (250 ppm), α-Tubulin loading control. As to the method: HEK293 cells grown in 6 well plates for Western blots and SDS polyacrylamide gel electrophoresis (SDS-PAGE) were washed with cold PBS twice and scraped in RIPA buffer (Cell Signaling, Cat. 9806, USA). Protein concentration in each sample was measured through Bradford assay using Bio-Rad Protein Assay Dye Reagent Concentrate (Bio-Rad #5000006) and spectrophotometry at 595 nm (Tecan Sunrise™ Absorbance Microplate Reader, Switzerland). From the measured protein concentration, a total of 15 μg of proteins per each sample were loaded on 7% SDS-PA gels, blotted onto nitrocellulous membrane, and probed for HSP70 and α-Tubulin using corresponding antibody (HSP70, Santa Cruz sc-32239; α-Tubulin, Santa Cruz sc-8035) in Western blot assay.
Further, we prompted to assess whether the gene expression of cell cycle and stress regulators such as cyclins and HSP70 is affected by MB, EB, and VB. […] The concentrations were chosen based on the LC50 values, approximately a third of the values, that would not cause cell death but could influence the gene expression in the tested cells. mRNAs of HSP70, CCNB1 (cyclin B1), and CCND1 (cyclin D1) were quantified by real-time PCR with ACTIN as a reference gene. […]

A further series relates to CCND1 (cyclin D1). Nature of the series: Real-time PCR, cyclin D1 mRNA expression in HEK293 cells. Type of series: cell-based, human. The conditions noted are these: HEK293, 48 h, VB 1.7 mM, ACTIN reference. As to the method:
as §1
Further, we prompted to assess whether the gene expression of cell cycle and stress regulators such as cyclins and HSP70 is affected by MB, EB, and VB. These chemicals were applied to the HEK293 or SH-SY5Y cells at the concentrations of 4.4 mM [0.06% MB, 0.05% (3.7 mM) for SH-SY5Y cells], 1.7 mM (0.025%, EB), and 1.7 mM (0.025%, VB), respectively, for 48 h before extracting the total RNAs from the cells. The concentrations were chosen based on the LC50 values, approximately a third of the values, that would not cause cell death but could influence the gene expression in the tested cells. mRNAs of HSP70, CCNB1 (cyclin B1), and CCND1 (cyclin D1) were quantified by real-time PCR with ACTIN as a reference gene. […]

Series [7] is described as follows: Crystal violet cell staining assay. Type of series: cell-based. The conditions noted are these: human, HEK293 cells, in agreement with WST-1, read-out: upper limit of MB concentration for HEK293 cell viability. The method, then: For the crystal violet experiment, cells were split into a 96 well and MB was applied to each well as described above and then HEK293 cells were grown for 1–2 days and CACO2 cells for 4–5 days. Crystal violet staining method published by M. [Feoktistova et al., (2016)] was used without modifications. The resultant plate was taken picture of. In addition, the stained cells were dissolved in methanol and the intensity of color was measured at 595 nm (Tecan Sunrise, Switzerland).

Series [8] in a line: WST-1 cytotoxicity / cell viability assay. Type of series: cell-based, human. The following applies: human, CACO2 cells; CACO2, WST assay, log-probit on percentage mortality; read-out: LC50. The method, then: as §3, §4
(§7) Ingested residual pesticides from agricultural foods may stay in the colon for a longer time than any other organs.

Another series relates to CACO2 cells. Nature of the series: WST-1 cytotoxicity / cell viability assay. The following applies: for reduction in CACO2 cells in the WST-1 assay: acetone-T20 solvent. Type of series: cell-based, human. The method, then:
as §3, §4, §7

Series [9] can be described thus: Visual observation of aggregates in cell culture media. The following applies: MB higher than 5.5 mM (0.075%) applied to the media; persisted with T20. Type of series: physicochemical. As to the method:
Therefore, we aimed to identify an upper limit of MB concentration between 0.1 and 11 mM (0.001% and 0.15%) where the growth of HEK293 cells was less affected. Seven MB concentrations, 0, 0.1, 0.7, 3.7, 5.5, 7.0, 11 mM (0%, 0.001%, 0.01%, 0.05%, 0.075%, 0.1%, and 0.15%), were applied to HEK293 cells and the WST-1 experiment was performed. […] This might be because of the hydrophobicity of MB which causes it to form aggregates facilitated by the aqueous condition in the cell culture media. […] The WST-1 data were similar to the results without T20, except for 5.5 mM MB. […] We attributed the increased sensitivity of MB concentration 5.5 mM (0.075%) in the acetone-T20 solvent to the synergistic cytotoxic effect in the presence of the detergent, T20 with MB or the enhanced solubility of MB.

The mark [10] stands for this setting: log-probit on percentage mortality.
[11] abbreviates: log-probit on percentage mortality, read-out: LC50 (the source's name).

As to `CCOC(=O)c1ccccc1` [EB, ethyl benzoate], the “mRNA expression of HSP70, CCNB1 and CCND1” value (“mRNA expression of HSP70” for short) in series [1] is reported as “did not display notable differential expressions”. The CC50 at 48 h stood at 6.9 mM in series [2] and 7.3 mM in series [5]. Besides, the LC50 worked out at 0.104% with HEK293 cells (setting [10]) and 0.11% in the series with SH-SY5Y cells (setting [10]). Moreover, in series [3], the “AChE mRNA expression” value is given as “hardly any change”. Besides, in the series on CCNB1 (cyclin B1), the “cyclin B1 mRNA expression compared with solvent control” value is listed as “rarely differentiated”. The “HSP70 mRNA expression compared with solvent control” value in the series with HSP70 [4] is “decreased”.
As to `C=COC(=O)c1ccccc1` [VB, vinyl benzoate], the “mRNA expression of HSP70” value in [1] is listed as “did not display notable differential expressions”. Further, the “relative toxicity among MB, EB and VB” value in the series with HEK293 cells and with SH-SY5Y cells was “most toxic” in each case. Moreover, the LC50 in the series with HEK293 cells (setting [10]) was 0.08%; with SH-SY5Y cells (setting [10]), 0.09%. Also, the figures for the CC50 with HEK293 cells (setting [11]) and with SH-SY5Y cells (setting [11]) were 5.4 mM and 6.1 mM, respectively. The “AChE mRNA expression” value in series [3] is on record as “mild increase”. Also, the “cyclin B1 mRNA expression compared with solvent control” value in the series on CCNB1 (cyclin B1) is “rarely differentiated”. The “HSP70 mRNA expression compared with solvent control” value in the series with HSP70 [4] is listed as “decreased”. The HSP70 protein level result in the series on HSP70 [6] is “consistently decreased”. In addition, in the series with CCND1 (cyclin D1), the “cyclin D1 mRNA expression compared with solvent control” value is listed as “noticeable reduction”.
`COC(=O)c1ccccc1` [MB, Methyl benzoate]: the viability in series [7] is at most 0.05%. For the same compound, the “mRNA expression of HSP70” value in [1] was “did not display notable differential expressions”. The CC50 at 48 h stood at 13.2 mM in series [2], 20.6 mM in [8] and 11 mM in series [5]. Further, the LC50 is on record as 0.18% in the series with HEK293 cells (setting [10]); 0.28% in the series on CACO2 cells (CACO2, WST assay, log-probit on percentage mortality); 0.15% with SH-SY5Y cells (setting [10]). The “reduction in CACO2 cells in the WST-1 assay” value is recorded as “about 30%” in the series with CACO2 cells (CACO2, MB 3.7 mM (0.05%)) and above 90% with CACO2 cells (CACO2, MB 7.3 mM (0.1%)). The “AChE mRNA expression” value in series [3] is recorded as “hardly any change”. In addition, in the series with CCNB1 (cyclin B1), the “cyclin B1 mRNA expression compared with solvent control” value is “rarely differentiated”. The “HSP70 mRNA expression compared with solvent control” value with HSP70 [4] is listed as “decreased”. Moreover, the “aggregate formation in cell culture media” value in [9] is given as “formed silver-colored aggregates”.
